Reference: US20260151431A1, “ACTIVATED STEM CELLS AND SYSTEMIC TREATMENT METHODS FOR INFECTED WOUNDS” (Colorado State University Research Foundation, priority 2015, published 2026)

Columns and labels:
[1] = tested on: highly antibiotic-resistant strains of bacteria; assay: In vitro killing of highly antibiotic-resistant bacteria by activated MSC and antibiotic; type: cell-based; conditions: triplicate cultures, assessed 4 h later; antibiotic at very high doses
Experimental: Using a similar experimental design as described in Example 9, supra, highly antibiotic-resistant strains of bacteria were incubated with activated MSC alone, antibiotics alone (cefazolin (cefa)), or antibiotics+activated MSC in triplicate cultures and bacterial killing assessed 4 h later.

inflammatory monocytes = type: in vivo, mice; conditions: chronic S. aureus infected wounds; i.v. MSC; compared to untreated control animals
Experimental: Studies were done to investigate the impact of activated MSC on host immune responses, including monocyte, macrophage, and neutrophil responses. The numbers of monocytes migrating into wound tissues was determined by use of reporter mice whose inflammatory monocytes all expressed GFP. Wounds from S. aureus infected mice were immunostained for detection of inflammatory monocytes.

Row | Compound | bacterial killing [1] | number of monocytes infiltrating the wounds (inflammatory monocytes)
1 | Cc1nnc(SCC2=C(C(=O)O)N3C(=O)[C@@H](NC(=O)Cn4cnnn4)[C@H]3SC2)s1 [cefazolin] | little bacterial killing | 
2 | amoxicillin-clavulanic acid [antibiotics] |  | relatively sparse population of monocytes
